In the assay the target is T1, full length SGK1 (Homo sapiens, UniProt O00141).
T1 construct: 125 μM full length SGK1 (Life Technologies Part #PR7358A); purchased Life Technologies PR7358A
T1 sequence (O00141 1-431): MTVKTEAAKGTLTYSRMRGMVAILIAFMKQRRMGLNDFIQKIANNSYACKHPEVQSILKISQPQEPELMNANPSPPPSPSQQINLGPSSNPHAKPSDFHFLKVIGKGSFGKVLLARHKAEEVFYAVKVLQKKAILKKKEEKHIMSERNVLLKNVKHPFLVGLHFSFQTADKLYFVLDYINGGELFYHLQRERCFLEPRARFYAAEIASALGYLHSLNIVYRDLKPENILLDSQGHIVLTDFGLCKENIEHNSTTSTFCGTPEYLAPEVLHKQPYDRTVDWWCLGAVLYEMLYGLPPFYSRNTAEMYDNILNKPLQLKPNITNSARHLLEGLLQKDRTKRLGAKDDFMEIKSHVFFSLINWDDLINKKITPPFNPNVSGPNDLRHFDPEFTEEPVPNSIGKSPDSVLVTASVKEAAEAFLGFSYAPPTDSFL
Description: SGK1 inhibition Assay A (Caliper LabChip electrophoretic separation of fluorescent peptide substrate and phosphorylated product). Format: biochemical. The following applies: Assay A; 20 μM ATP, 40 min incubation; read-out: SGK1 IC50.

From patent US20260250290A1 (BRISTOL-MYERS SQUIBB COMPANY, priority 2023, published 2026) come the findings set out here.

In general, IC50 refers to the midpoint of a concentration-inhibition curve.

SMILES strings stand for the structures.

For the molecule `CC(=O)N1CC=C(c2cc(N3CCC[C@@H](NC(=O)c4cccc(N(C)C)c4)C3)c3c(N)ncnn23)C1` [Example 465, (R)-N-(1-(7-(1-acetyl-2,5-dihydro-1H-pyrrol-3-yl)-4-aminopyrrolo[2,1-f][1,2,4]triazin-5-yl)piperidin-3-yl)-3-(dimethylamino)benzamide], the IC50 amounted to 64 nM.
`CC(=O)Nc1ccc(C(=O)N[C@@H]2CCCN(c3cc(C4=CCN(C(C)=O)C4)n4ncnc(N)c34)C2)cc1` [Example 466, (R)-4-acetamido-N-(1-(7-(1-acetyl-2,5-dihydro-1H-pyrrol-3-yl)-4-aminopyrrolo[2,1-f][1,2,4]triazin-5-yl)piperidin-3-yl)benzamide]: the IC50 was 50 nM.
Regarding `CC(=O)N1CC=C(c2cc(N3CCC[C@@H](NC(=O)c4ccc5c(c4)OCO5)C3)c3c(N)ncnn23)C1` [Example 467, (R)-N-(1-(7-(1-acetyl-2,5-dihydro-1H-pyrrol-3-yl)-4-aminopyrrolo[2,1-f][1,2,4]triazin-5-yl)piperidin-3-yl)benzo[d][1,3]dioxole-5-carboxamide], the IC50 was found to be 64 nM.
Then `CC(=O)N1CC=C(c2cc(N3CCC[C@@H](NC(=O)c4ccc(S(C)(=O)=O)cc4)C3)c3c(N)ncnn23)C1` [Example 468, (R)-N-(1-(7-(1-acetyl-2,5-dihydro-1H-pyrrol-3-yl)-4-aminopyrrolo[2,1-f][1,2,4]triazin-5-yl)piperidin-3-yl)-4-(methylsulfonyl)benzamide], with 26 nM; and `CC(=O)N1CC=C(c2cc(N3CCC[C@@H](NC(=O)c4ccccc4N(C)C)C3)c3c(N)ncnn23)C1` [Example 470, (R)-N-(1-(7-(1-acetyl-2,5-dihydro-1H-pyrrol-3-yl)-4-aminopyrrolo[2,1-f][1,2,4]triazin-5-yl)piperidin-3-yl)-2-(dimethylamino)benzamide], with 75 nM; and `CC(=O)N1CC=C(c2cc(N3CCC[C@@H](NC(=O)c4nn(-c5ccccc5)nc4C)C3)c3c(N)ncnn23)C1` [Example 471, (R)-N-(1-(7-(1-acetyl-2,5-dihydro-1H-pyrrol-3-yl)-4-aminopyrrolo[2,1-f][1,2,4]triazin-5-yl)piperidin-3-yl)-5-methyl-2-phenyl-2H-1,2,3-tricazole-4-arboxamide], with 146 nM.
Regarding `CC(=O)N1CC=C(c2cc(N3CCC[C@@H](NC(=O)c4sc(C)nc4C)C3)c3c(N)ncnn23)C1` [Example 472, (R)-N-(1-(7-(1-acetyl-2,5-dihydro-1H-pyrrol-3-yl)-4-aminopyrrolo[2,1-f][1,2,4]triazin-5-yl)piperidin-3-yl)-2,4-dimethylthiazole-5-carboxamide], the half-inhibitory concentration (IC50) amounted to 62 nM.
On to `CC(=O)N1CC=C(c2cc(N3CCC[C@@H](NC(=O)c4snnc4C)C3)c3c(N)ncnn23)C1` [Example 473, (R)-N-(1-(7-(1-acetyl-2,5-dihydro-1H-pyrrol-3-yl)-4-aminopyrrolo[2,1-f][1,2,4]triazin-5-yl)piperidin-3-yl)-4-methyl-1,2,3-thiadiazole-5-carboxamide], for which the IC50 amounted to 107 nM.
Turning to `COc1nc(C)c(C(=O)N[C@@H]2CCCN(c3cc(C4=CCN(C(C)=O)C4)n4ncnc(N)c34)C2)s1` [Example 474, (R)-N-(1-(7-(1-acetyl-2,5-dihydro-1H-pyrrol-3-yl)-4-aminopyrrolo[2,1-f][1,2,4]triazin-5-yl)piperidin-3-yl)-2-methoxy-4-methylthiazole-5-carboxamide], the IC50 was 45 nM.
In the case of `COC(=O)C12CC(C(=O)N[C@@H]3CCCN(c4cc(C5=CCN(C(C)=O)C5)n5ncnc(N)c45)C3)(C1)C2` [Example 478, Methyl(R)-3-((1-(7-(1-acetyl-2,5-dihydro-1H-pyrrol-3-yl)-4-aminopyrrolo[2,1-f][1,2,4]triazin-5-yl)piperidin-3-yl)carbamoyl)bicyclo[1.1.1]pentane-1-carboxylate], the half-inhibitory concentration (IC50) amounted to 771 nM.
For `COC(=O)N1CC=C(c2cc(N3CCC[C@@H](NC(=O)c4ccc(C(F)F)s4)C3)c3c(N)ncnn23)C1` [Example 480, Methyl (R)-3-(4-amino-5-(3-(5-(difluoromethyl)thiophene-2-carboxamido)piperidin-1-yl)pyrrolo[2,1-f][1,2,4]triazin-7-yl)-2,5-dihydro-1H-pyrrole-1-carboxylate], the IC50 came to 3 nM.
Take `Nc1ncnn2c(-c3ccnc(C(F)F)c3)cc(N3CCC[C@@H](NC(=O)c4sc(Cl)cc4O)C3)c12` [Example 481, (R)-N-(1-(4-amino-7-(2-(difluoromethyl)pyridin-4-yl)pyrrolo[2,1-f][1,2,4]triazin-5-yl)piperidin-3-yl)-5-chloro-3-hydroxythiophene-2-carboxamide]: the IC50 was determined as 16 nM.
As for `Nc1ncnn2c(-c3ccnc(C(F)F)c3)cc(N3CCC[C@@H](NC(=O)c4ccc(Cl)s4)C3)c12` [Example 483, (R)-N-(1-(4-amino-7-(2-(difluoromethyl)pyridin-4-yl)pyrrolo[2,1-f][1,2,4]triazin-5-yl)piperidin-3-yl)-5-chlorothiophene-2-carboxamide], the half-inhibitory concentration (IC50) is 4 nM.
The result for `Nc1ncnn2c(-c3ccnc(C(F)F)c3)cc(N3CCC[C@@H](NC(=O)c4cccs4)C3)c12` [Example 484, (R)-N-(1-(4-amino-7-(2-(difluoromethyl)pyridin-4-yl)pyrrolo[2,1-f][1,2,4]triazin-5-yl)piperidin-3-yl)thiophene-2-carboxamide] reads 4 nM; that for `Cc1nc(C)c(C(=O)N[C@@H]2CCCN(c3cc(-c4ccnc(C(F)F)c4)n4ncnc(N)c34)C2)s1` [Example 485, (R)-N-(1-(4-amino-7-(2-(difluoromethyl)pyridin-4-yl)pyrrolo[2,1-f][1,2,4]triazin-5-yl)piperidin-3-yl)-2,4-dimethylthiazole-5-carboxamide], 26 nM; that for `CC(C)c1cc(C(=O)N[C@@H]2CCCN(c3cc(-c4ccnc(C(F)F)c4)n4ncnc(N)c34)C2)[nH]n1` [Example 486, (R)-N-(1-(4-amino-7-(2-(difluoromethyl)pyridin-4-yl)pyrrolo[2,1-f][1,2,4]triazin-5-yl)piperidin-3-yl)-3-isopropyl-1H-pyrazole-5-carboxamide], 27 nM.
Take `N#Cc1ccc(-c2cc(N3CCC[C@@H](NC(=O)c4ccc(C(F)F)s4)C3)c3c(N)ncnn23)cn1` [Example 487, (R)-N-(1-(4-amino-7-(6-cyanopyridin-3-yl)pyrrolo[2,1-f][1,2,4]triazin-5-yl)piperidin-3-yl)-5-(difluoromethyl)thiophenc-2-carboxamide]: the concentration for half-maximal inhibition (IC50) came to 3 nM.
For `Nc1ncnn2c(-c3ccnc(C(F)F)c3)cc(N3CCC[C@@H](NC(=O)c4cc5ccccc5[nH]4)C3)c12` [Example 488, (R)-N-(1-(4-amino-7-(2-(difluoromethyl)pyridin-4-yl)pyrrolo[2,1-f][1,2,4]triazin-5-yl)piperidin-3-yl)-1H-indole-2-carboxamide], the half-maximal inhibitory concentration (IC50) was determined as 1 nM.
On to `Nc1ncnn2c(-c3ccnc(C(F)F)c3)cc(N3CCC[C@@H](NC(=O)c4nc5ccccc5[nH]4)C3)c12` [Example 489, (R)-N-(1-(4-amino-7-(2-(difluoromethyl)pyridin-4-yl)pyrrolo[2,1-f][1,2,4]triazin-5-yl)piperidin-3-yl)-1H-benzo[d]imidazole-2-carboxamide], for which the IC50 was 53 nM.
Then `CC(=O)N1CC=C(c2cc(N3CCC[C@@H](NC(=O)c4cc5cnccc5[nH]4)C3)c3c(N)ncnn23)C1` [Example 490, (R)-N-(1-(7-(1-acetyl-2,5-dihydro-1H-pyrrol-3-yl)-4-aminopyrrolo[2,1-f][1,2,4]triazin-5-yl)piperidin-3-yl)-1H-pyrrolo[3,2-c]pyridine-2-carboxamide], with 24 nM; and `COc1ccc2[nH]c(C(=O)N[C@@H]3CCCN(c4cc(C5=CCN(C(C)=O)C5)n5ncnc(N)c45)C3)cc2c1` [Example 491, (R)-N-(1-(7-(1-acetyl-2,5-dihydro-1H-pyrrol-3-yl)-4-aminopyrrolo[2,1-f][1,2,4]triazin-5-yl)piperidin-3-yl)-5-methoxy-1H-indole-2-carboxamide], with 6 nM.
Regarding `CC(=O)N1CC=C(c2cc(N3CCC[C@@H](NC(=O)c4cc(-c5ccccc5)ncn4)C3)c3c(N)ncnn23)C1` [Example 492, (R)-N-(1-(7-(1-acetyl-2,5-dihydro-1H-pyrrol-3-yl)-4-aminopyrrolo[2,1-f][1,2,4]triazin-5-yl)piperidin-3-yl)-6-phenylpyrimidine-4-carboxamide], the 50% inhibitory concentration (IC50) came to 53 nM.
`CC(=O)N1CC=C(c2cc(N3CCC[C@@H](NC(=O)c4cc(-c5ccccc5)n[nH]4)C3)c3c(N)ncnn23)C1` [Example 493, (R)-N-(1-(7-(1-acetyl-2,5-dihydro-1H-pyrrol-3-yl)-4-aminopyrrolo[2,1-f][1,2,4]triazin-5-yl)piperidin-3-yl)-3-phenyl-1H-pyrazole-5-carboxamide]: the half-maximal inhibitory concentration (IC50) is 6 nM.
Consider `CC(=O)N1CC=C(c2cc(N3CCC[C@@H](NC(=O)c4ccc(C#N)cc4)C3)c3c(N)ncnn23)C1` [Example 494, (R)-N-(1-(7-(1-acetyl-2,5-dihydro-1H-pyrrol-3-yl)-4-aminopyrrolo[2,1-f][1,2,4]triazin-5-yl)piperidin-3-yl)-4-cyanobenzamide], for which the IC50 came to 38 nM.
Regarding `CC(=O)N1CC=C(c2cc(N3CCC[C@@H](NC(=O)c4cccc(C#N)c4)C3)c3c(N)ncnn23)C1` [Example 495, (R)-N-(1-(7-(1-acetyl-2,5-dihydro-1H-pyrrol-3-yl)-4-aminopyrrolo[2,1-f][1,2,4]triazin-5-yl)piperidin-3-yl)-3-cyanobenzamide], the IC50 turned out to be 87 nM.
